Test results from patent US20100009906A1, “Anticancer Treatments” (PHARMA MAR, S.A., priority 2006, published 2010).
Where two headings read alike, the source gives them in different places.

How the values were obtained:
[1] = Pharmacokinetics of trabectedin and docetaxel following coadministration in patients with advanced malignancies; format: in vivo, human; details: for clearance / Vd / CL / Vss: mean (SD); for Vd: read-out: Vss
Protocol: FIG. 2 and FIG. 3. Pharmacokinetic parameters of trabectedin and docetaxel following coadministration in patients with advanced malignancies.
A phase I trial combining docetaxel and trabectedin was performed. The objective of this study was to determine the maximum tolerated dose (MTD) of trabectedin in combination with docetaxel (60 mg/m^2 or 75 mg/m^2) administered every 21 days. Additional objectives were to evaluate the safety profile of this combination of drugs and to evaluate the pharmacokinetics of trabectedin and docetaxel when given in combination. The maximum tolerated dose (MTD) relates to the highest dose at which less than one third of the subjects in a dose-level cohort experienced dose-limiting toxicity (DLT).
We designed a dose finding trial with a fixed docetaxel dose of 60 mg/m^2 or 75 mg/m^2 administered intravenously over one hour, followed by one of six trabectedin doses (0.4, 0.6, 0.75, 0.9, 1.1, and 1.3 mg/m^2) administered intravenously over 3 hours, with one hour of rest between the administration of docetaxel and ET-743. This treatment was repeated every 21 days. […] Restricted patients received ≦1 prior chemotherapy regimen whereas unrestricted patients had no limit. In addition, protocol amendment after dose level 2a allowed administration of primary prophylactic G-CSF.

[2] = test system: human tumour xenografts (melanoma, ovarian and breast carcinoma); details: athymic mice; cited from earlier work
[3] = test system: patients with sarcoma, breast and ovarian carcinoma; details: cited from earlier work
[4] = human, in vivo, intravenous, docetaxel 60 mg/m^2 coadministered with trabectedin 400 μg/m^2 (n = 6)
[5] = human, in vivo, intravenous, docetaxel 60 mg/m^2 coadministered with trabectedin 600 μg/m^2 (n = 4)
[6] = trabectedin 400 μg/m^2 (n = 6) coadministered with 60 mg/m^2 of docetaxel
[7] = trabectedin 600 μg/m^2 (n = 3) coadministered with 60 mg/m^2 of docetaxel

SMILES | Terminal t1/2 ([1]; docetaxel 60 mg/m^2 coadministered with trabectedin 400 μg/m^2 (n = 6), median (range)) | clearance [1, 4] | Vd [1, 4] | clearance [1, 5] | Vd [1, 5] | half-life ([1]; human, in vivo, intravenous, docetaxel 60 mg/m^2 coadministered with trabectedin 600 μg/m^2 (n = 4), median (range), read-out: Terminal t1/2 (converted)) | Impact of concomitant administration of trabectedin on the pharmacokinetics of docetaxel ([1]; patients with advanced malignancies) | Anticancer activity against human tumour xenografts [2] | CL [1, 6] | Vss [1, 6] | Terminal t1/2 ([1]; trabectedin 400 μg/m^2 (n = 6) coadministered with 60 mg/m^2 of docetaxel, median (range)) | CL [1, 7] | Vss [1, 7] | Terminal t1/2 ([1]; trabectedin 600 μg/m^2 (n = 3) coadministered with 60 mg/m^2 of docetaxel, median (range)) | Responses in patients [3]
CC(=O)O[C@@]12CO[C@@H]1C[C@H](O)[C@@]1(C)C(=O)[C@H](O)C3=C(C)[C@@H](OC(=O)[C@H](O)[C@@H](NC(=O)OC(C)(C)C)c4ccccc4)C[C@@](O)([C@@H](OC(=O)c4ccccc4)[C@H]21)C3(C)C [Docetaxel, (2R,3S)-N-carboxy-3-phenylisoserine, N-tert-butyl ester, 13-ester with 5β-20-epoxy-1,2α,4,7β,10β, 13α-hexahydroxytax-11-en-9-one 4-acetate 2-benzoate, trihydrate] | 19.9 (6.7-23) h | 815 mL/min | 405 L | 797 mL/min | 900 L | 38.2 h | not adversely impacted |  |  |  |  |  |  |  | 
COc1cc2c(cc1O)CCN[C@]21CS[C@@H]2c3c(OC(C)=O)c(C)c4c(c3[C@H](COC1=O)N1[C@@H]2[C@H]2c3c(cc(C)c(OC)c3O)C[C@@H]([C@@H]1O)N2C)OCO4 [Trabectedin, Ecteinascidin 743] |  |  |  |  |  |  |  | potent anticancer activity | 127 (61) L/h | 1179 (1402) L | 11.4 (3.3-100) h | 101 (46) L/h | 2754 (1946) L | 37.5 (11.7-98.8) h | Promising ET-743 responses
